# Entries after “also recorded” stand apart in the source; their conditions may differ. Read-outs that look alike come from different tables or passages of the source.
# What was measured:
# [1] = for stability of the compound in phosphate buffer (HPLC): 25 μM of each compound, 0.1 M phosphate buffer pH 7.4
# MC38 colon cancer cells [2] = test: MC38 colon cancer cell proliferation (MTT assay); assay type: cell-based; details: for effect of antioxidant on anti-proliferative effect of curcumin: MC38, curcumin 20 μM with antioxidant (3.9 μM each, FIG. 4D); for effect of antioxidant on anti-proliferative effect of curcumin / effect of antioxidant alone on MC38 cell proliferation: 24 h; for effect of antioxidant alone on MC38 cell proliferation: 3.9-62.5 μM antioxidant alone; for inhibition at 10 µg/mL: Mus musculus
# Method: MC38 colon cancer cells (a gift from Prof. Ajit Varki at the University of California, San Diego) were plated into 96-well plates (6,000 cells per well) in 100 μL Dulbecco's Modified Eagle Medium (DMEM, purchased from Lonza, Allendale, N.J.) fortified with 10% Fetal Bovine Serum ([…], purchased from Coming Inc., Corning, N.Y.) and allowed to attach overnight. […] Nitteranon, V.; Chan, L. Y.; Parkin, K. L. Glutathione conjugation attenuates biological activities of 6-dehydroshogaol from ginger. Food Chem. 140:1-8; 2013, which is incorporated by reference herein in its entirety and for all purposes.
# [3] = tested on: LPS-induced NO production; test: LPS-induced NO production in RAW 264.7 macrophage cells; assay type: cell-based
# iNOS = test: LPS-induced expression of iNOS in RAW 264.7 macrophage cells; assay type: cell-based
# [4] = tested on: advanced pancreatic cancer; details: human, daily intake of 8 grams; cited from earlier work
# MC38 colon cancer cells [5] = test: Cell cycle progression and apoptosis in MC38 colon cancer cells; assay type: cell-based; details: MC38, 24 hour treatment
# physchem = details: 0.1 M phosphate buffer, pH 7.4
# [6] = aqueous buffer, background statement; cited from earlier work
# [7] = Plasma concentration of curcumin in mice after i.p. injection (HPLC); assay type: in vivo; details: male, Swiss Webster, mouse, intraperitoneal, 20 mg/kg
# Method: After 1 h, the mice were sacrificed to harvest the blood. The harvested blood was centrifuged at 1,200 g for 10 min at 4° C. to prepare the plasma fraction; then 200 μL plasma was immediately extracted with 400 μL ethyl acetate, the ethyl acetate extract was dried and reconstituted in methanol for HPLC analysis.
# The mobile phase consisted methanol with 0.1% acetic acid (mobile phase B) and water with 0.1% acetic acid (mobile phase A).
# COX-2 = details: RAW 264.7 macrophage cells
# NF-kB signaling = test: LPS-induced NF-kB signaling in RAW 264.7 macrophage cells; assay type: cell-based
# colorectal cancer = details: human, cited from earlier work
# [8] = tested on: Cadmium-induced hepatotoxicity; details: rats; 200-400 mg/kg curcumin alone, 400 mg/kg ascorbate alone, or their combination; cited from earlier work
# [9] = Curcumin stability in serum-free basal DMEM medium (HPLC); assay type: physicochemical
# Source text: (A1-A6) Representative microscope images of the treated cells. […] The results are mean ±SD, The samples designated with different letters are statistically different (P <0.05).
# [10] = 25 μM curcumin, 0.1 M phosphate buffer, with or without 150 μM antioxidant, HPLC, % of time 0
compound,measurement,setting,value
"O=C([O-])CN(CCN(CC(=O)O)CC(=O)O)CC(=O)[O-].[Na+].[Na+] [EDTA, disodiumethylenediaminetetra acetic acid]",protective effect of EDTA on curcumin stability (HPLC),"[1]; EDTA even at a dose as high as 200 μM, phosphate buffer",little protective effect
"CC(C)(C)c1cc(O)ccc1O [TBHQ, tert-butylhydroquinone]",effect of antioxidant on anti-proliferative effect of curcumin,MC38 colon cancer cells [2],significantly increased anti-proliferative effects of curcumin
Cc1c(C)c2c(c(C)c1O)CCC(C)(C(=O)O)O2 (stereo not drawn) [Trolox],effect of antioxidant alone on MC38 cell proliferation,MC38 colon cancer cells [2],no effect
same,effect of antioxidant on anti-proliferative effect of curcumin,MC38 colon cancer cells [2],significantly increased anti-proliferative effects of curcumin
O=C1O[C@H]([C@@H](O)CO)C(O)=C1O [ascorbate],effect of antioxidant alone on MC38 cell proliferation,MC38 colon cancer cells [2],no effect
O=C(O)/C=C/c1ccc(O)c(O)c1 [caffeic acid],effect of antioxidant on anti-proliferative effect of curcumin,MC38 colon cancer cells [2],significantly increased anti-proliferative effects of curcumin
COc1cc(/C=C/C(=O)CC(=O)/C=C/c2ccc(O)c(OC)c2)ccc1O [curcumin],inhibition of LPS-induced NO production,[3],inhibited LPS-induced NO production in a dose-dependent manner
same,inhibition of LPS-induced expression of iNOS,iNOS,dose-dependently inhibited
same,anti-cancer efficacy in advanced pancreatic cancer,[4],demonstrates anti-cancer efficacy in some patients
same,G2 cell cycle arrest and apoptosis,MC38 colon cancer cells [5],significantly induced G2 cell cycle arrest and apoptosis
same,half-life at 25 μM,physchem,< 10 min
same,half-life of curcumin at physiological pH,[6],several minutes
same,concentration at 1 h,[7],14.8 ± 16 nM
same,inhibition of LPS-induced expression of inflammatory protein COX-2,COX-2,inhibited
same,"inhibition of LPS-induced NF-kB signaling (IKK phosphorylation, IκBα degradation, nuclear translocation of p65)",NF-kB signaling,inhibited LPS-induced activation of NF-kB signaling
same,effect in Phase IIa trial of colorectal cancer at 2 grams/day,colorectal cancer; 2 grams/day,no effect
same,effect in Phase IIa trial of colorectal cancer at 4 grams/day,colorectal cancer; 4 grams/day,only inhibited aberrant crypt foci; also recorded: only reduced colorectal cancer risks
same,reduction of aberrant crypt foci,colorectal cancer; daily intake of 4 grams of curcumin for a month,~40%
same,effect on Cadmium-induced hepatotoxicity,[8],no effect
same,degradation of curcumin in the buffer (HPLC),"[1]; 25 μM curcumin, 0.1 M phosphate buffer pH 7.4, after ~12-min incubation",80-90%
same,curcumin remaining in the phosphate buffer after 24-h incubation,[1]; [10],~5.9%
same,curcumin remaining in the phosphate buffer after 48-h incubation,[1]; [10],~4.2%
same,stability of the compound in phosphate buffer (HPLC),[1],rapidly degraded
same,stability of curcumin in basal medium,[9],rapidly degraded
same,inhibition at 10 µg/mL,"MC38 colon cancer cells [2]; MC-38, 24 h, read-out: inhibition of MC38 proliferation after 24 h treatment",~60%
same,inhibition at 10 µg/mL,"MC38 colon cancer cells [2]; MC-38, read-out: inhibition of MC38 proliferation after 48-72 h treatment",> 95%
"COc1ccc(C=CC(=O)CC(=O)C=Cc2ccc(OC)c(OC)c2)cc1OC [dimethoxy curcumin, 1,7-bis(3,4-dimethoxyphenyl)-1,6-heptadiene-3,5-dione]",stability of the compound in phosphate buffer (HPLC),[1],very stable
O=C(O)c1cc(O)c(O)c(O)c1 [gallic acid],"effect of co-added antioxidant on curcumin stability (colorimetric assay, absorbance 420 nm)","[1]; 25 μM curcumin, phosphate buffer, dose of antioxidants 15 and 1.50 μM as printed",dramatically increased curcumin stability
same,effect of co-added antioxidant on long-term stability of curcumin,"[1]; 24-h and 48-h incubation, antioxidant 150 μM, 25 μM curcumin, phosphate buffer, HPLC",significantly increased long-term stability of curcumin
same,effect of antioxidant on anti-proliferative effect of curcumin,MC38 colon cancer cells [2],significantly increased anti-proliferative effects of curcumin
O=C(/C=C/c1ccc(O)c(O)c1)O[C@H](Cc1ccc(O)c(O)c1)C(=O)O [rosmarinic acid],effect of antioxidant on anti-proliferative effect of curcumin,MC38 colon cancer cells [2],significantly increased anti-proliferative effects of curcumin
bicyclopentadione [BCP],inhibition of LPS-induced NO production,[3],no effect
same,inhibition of LPS-induced expression of iNOS,iNOS,no effect
same,G2 cell cycle arrest and apoptosis,MC38 colon cancer cells [5],neither TDP nor BCP had such effects
same,"inhibition of LPS-induced NF-kB signaling (IKK phosphorylation, IκBα degradation, nuclear translocation of p65)",NF-kB signaling,neither TDP nor BCP had such inhibitory effect
same,inhibition of cancer cell proliferation in the tested dose range,"MC38 colon cancer cells [2]; MC38, 10-40 μg/mL, 24-72 h treatment",completely inactive

# — patent publication US20170071901A1, “METHODS AND FORMULATIONS FOR INCREASING CHEMICAL STABILITY AND BIOLOGICAL ACTIVITY OF PHENOLIC COMPOUNDS” (priority 2015, published 2017)
